# Earlier results in patent US20250339403A1, “Tryptamine Formulations and Uses Thereof” (Natural MedTech Pty Ltd, priority 2022, published 2025).
# Like-named read-outs stand apart in the source and are kept apart here.
# Tests used:
# [1] = not given; remark: listed apart in the source
# MAO = conditions: after administration
# [2] = in vivo
# [3] = weight-to-weight basis
smiles,measurement,setting,value
"CN(C)CCc1c[nH]c2ccccc12 [DMT, N,N-dimethyltryptamine]",share of recovered compounds that was DMT-N-oxide (DMT-NO),after oral administration,3%
same,share of recovered compounds that were MAO-dependent IAA,after oral administration,97%
same,unmetabolized DMT in blood samples and urine,after oral administration,no unmetabolized DMT
same,share of recovered metabolites that were MAO-dependent IAA,smoking DMT,63%
same,psychotropic effects,[1]; after oral consumption,not experienced
same,psychotropic effects,[1]; after smoking an equivalent dose,noted
same,effectiveness,[1]; inhaled free-base DMT (0.07-0.28 mg/kg),have not shown effectiveness
same,effectiveness,[1]; rectally administered (1.7 mg/kg of the bioxalate salt),have not shown effectiveness
"O=C(NCCN1CCOCC1)c1ccc(Cl)cc1 [Moclobemide, 4-chloro-N-(2-morpholin-4-ylethyl)benzamide]",time by which inhibition of MAO is completely absent,MAO,≤ 24 h
same,half-life,[2],about 2 hours
"COc1ccc2[nH]cc(CCN(C)C)c2c1 [Formulation 5-MeO-DMT, 5-methoxy-N,N-dimethyltryptamine]",amount required to induce hallucinations,[1]; inhalation,6 to 20 mg
same,amount required to induce hallucinations,[1]; intravenous injection,0.7 to 3.1 mg
same,amount required to induce hallucinations,[1]; oral administration,~30 mg
same,amount required to induce hallucinations,[1]; sublingual or intranasal insufflation,~10 mg
"CN(C)CCc1c[nH]c2cccc(O)c12 [Psilocin, 3-[2-(dimethylamino)ethyl]-1H-indol-4-ol]",potency relative to psilocybin,[3],about 1.4 times
